In patent US11497813B2, “Bortezomib conjugates and methods using same” (Frank EBETINO et al., priority 2015, dated 2022):
“Also recorded” adds a separate entry of the source.

Legend:
osteoclasts = assay: Osteoclast formation and bone resorption on bone slices pre-incubated with compound; assay type: cell-based, mouse
Procedure: FIG. 5A is a scheme of an exemplary synthesis of compound BP-Btz1. FIG. 5B is a series of images of bone slices pre-incubated with 1 μM BP-Btz1, Btz, or bisphosphonate (BP) overnight. Drug solutions were removed and bone slices were washed with PBS extensively. […] (BM) cells from UB^G76V-GFP mice were cultured on bone slices in the presence of M-CSF and RANKL for 9 days. Top images (a): GFP^+ cells were observed under a fluorescence microscope and GFP signal intensity was quantified. Middle images (b): bone slices were fixed and subjected to TRAP staining for osteoclasts (OCs). OC #/slice were counted. Bottom images (c): cells were removed from slices. Toluidine blue staining was performed and pit areas/slice were counted. FIG. 5C is a series of images of murine BM cells cultured and stained for ALP. FIG. 5D is a series of images of human MSCs cultured and stained for ALP. Murine BM cells and human MSCs were cultured in the OB-inducing medium plus different concentrations of BP-Btz1 or Btz for 4 or 6 days, respectively. Cells were stained for ALP. The ALP^+ areas were measured by Image J. *P<0.05 vs. Btz-treated cells.
As a control, the effects of the non-bioactive bisphosphonate (BP) that would be released in the bone compartment were also studied. […] In a pivotal in vitro study, this BP-Btz1 and Btz were independently incubated with bone slices for 24 hours, after which the bone slices were removed and placed in culture wells with fresh media along with osteoclast precursors. […]
1. […] Following proteasome inhibitor administration, Ub^G76V accumulates and GFP fluorescence is readily apparent. GFP^+ OCs were detected at 4 and 8 hrs after adding Btz to OC cultures, which disappeared at 24 hrs. […] The number and area of OCs and resorption pits are assessed. The appearance, intensity and distribution of GFP^+ cells on bone slices and plastic surrounding bone slices during OC formation is observed and recorded. […] Area of ALP^+ and mineralized bone nodule, and the expression levels of OB marker genes (ALP, osteocalcin, Runx2) are measured. […]

OVX mice = assay: OVX-induced bone loss in C57/B6 mice; assay type: in vivo, mouse
Procedure: Ovariectomy was carried out in 10-week-old female C57/B6 mice.
Histomorphometry (FIG. 20A) and biomechanical testing (FIG. 20B) were also done. These experiments were done using C57/B6 mice, 10 w, treatment at 4 w post-OVX for 4 w.

C57/B6 mice = assay: Systemic toxicity in C57/B6 mice, daily treatment for 3 weeks; assay type: in vivo
Procedure: C57/B6 mice, 7 w, BP or Btz (0.6 mg/kg), BP-Btz (1.2 mg/k), daily for 3 weeks. FIG. 29A depicts the groups and treatment used in the experimental examples. FIG. 29B depicts a table of experimental data of body weight before and after treatment. […] FIG. 29D depicts experimental data of bone marrow.

thymus = settings: mice, cited from earlier work
fractured mice = assay: Open tibial fracture healing in WT mice; assay type: in vivo, mouse
Procedure: WT mice that received an open tibial fracture were treated with Btz (0.6 mg/kg body weight, ip) or vehicle at day 1, 3, 5, 7, and sacrificed at various days post-fracture. FIG. 2A is an image of the structure of Bortezomib. FIG. 2B is a graph depicting μCT data analyses of callus size from 10 days post-fracture. N+4 mice/group. FIG. 2C is a series of images of representative histology of fractured tibiae stained with alcian blue hematoxylin/orange G eosin showing cartilage (blue) and bone (pink) formation. Histomorphometric measurements were performed with a Visiopharm Imaging Analysis software system. N=3 mice/group. FIG. 2D is a series of graphs depicting data of biomechanical testing of tibiae from 28 days after fracture. N=5 mice/group. FIG. 2E is a series of images of spectra depicting data of immune-phenotyping of callus cells from 7 days post-fracture. FIG. 2F is a series of images of immunoblots depicting protein expression levels of total Ub-proteins and JunB and Runx2 levels in calluses from 10 days post-fracture. *p<0.05 vs. vehicle group.

[1] = OVX C57/B6 mice, treatment at 4 w post-OVX for 4 w

In the case of `CC(C)C[C@H](NC(=O)[C@H](Cc1ccccc1)NC(=O)c1cnccn1)B1OCCN(CCOC(=O)NC(P(=O)(O)O)P(=O)(O)O)CCO1` [BP-Btz1], the osteoclast function (osteoclasts) is reported as “maintains its bioactivity on inhibition of OCs; also recorded: inhibits osteoclast function”, the “Formation and activity of osteoclasts on pre-incubated bone slices” value (osteoclasts; bone slices pre-incubated with compound (1 μM, 24 hours), removed, then osteoclast precursors in fresh media) is reported as “significantly reduced” and the “anti-osteoclast activity on bone slices” value (osteoclasts; in vitro studies on bone slices, compared with Btz) is reported as “anti-osteoclast activity equivalent to than Btz itself”. The bone mass (OVX mice; [1]) was “increases bone mass and strength in OVX mice as effectively as Btz”, the bone strength (OVX mice; [1]) was “increases bone mass and strength in OVX mice as effectively as Btz” and the OVX-induced bone loss (OVX mice; OVX mice) was “reduces OVX-induced bone loss”. The osteoblast differentiation (OVX mice; OVX mice) was “more potently promotes osteoblast differentiation”, the CFU-ALP colony formation (OVX mice; cells from OVX mice) was “increases CFU-ALP colony formation” and the CFU-F colony formation (OVX mice; cells from OVX mice) was “increases CFU-F colony formation”. The “B cell numbers in bone marrow” value (C57/B6 mice; C57/B6 mice, 7 w, daily for 3 weeks) was “reduces B cell numbers”, the systemic toxicity (C57/B6 mice; C57/B6 mice, daily for 3 weeks, compared with Btz) was “less systemic toxicity than Btz” and the “toxic effect on neurons (dorsal root ganglia)” value (C57/B6 mice; EM images of dorsal root ganglia) was “prevents toxic effect on neurons”.

In the case of `CC(C)C[C@H](NC(=O)[C@H](Cc1ccccc1)NC(=O)c1cnccn1)B(O)O` [Btz, [(1R)-3-methyl-1-[[(2S)-1-oxo-3-phenyl-2[(pyrazinylcarbonyl)amino]propyl]amino]butyl] boronic acid], the splenocytes numbers (thymus; Btz injection) is listed as “not”, the “total and CD4+ and CD8+ thymocyte numbers” value (thymus; Btz injection) is listed as “markedly decreases” and the “number of T cells in the thymus” value (thymus; as early as 3 days after administration) is listed as “significantly reduces”. The “expression of osteoblast positive regulators” value (fractured mice; 0.6 mg/kg ip day 1, 3, 5, 7, JunB and Runx2 in calluses) was “increases”, the MSC numbers (fractured mice; 0.6 mg/kg ip day 1, 3, 5, 7, callus cells) was “increases” and the “Nestin+ MPCs” value (fractured mice; fractured mice) was “increased”. The bone strength (fractured mice; fractured mice) was “increases bone strength”, the callus formation (fractured mice; fractured mice) was “accelerates callus formation” and the “Ub-proteins in fracture calluses” value (fractured mice; short-term treatment) was “accumulation of Ub-proteins”. The fracture healing (fractured mice; short-term treatment) was “increases fracture healing”.
